In PubChem BioAssay (NCI):
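The concentration for 50% growth inhibition is given as GI50. TGI: total growth inhibition.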

Columns and labels:
Assay in all cases: growth of human tumour cells (NCI), 384-well format
[1] = system: MDA-MB-231 breast
[2] = system: HCT-116 colon
[3] = system: LOX IMVI melanoma
[4] = system: SK-MEL-2 melanoma
[5] = system: HCC-2998 colon
[6] = system: UACC-62 melanoma
[7] = system: DU-145 prostate
[8] = system: MCF7 breast
[9] = system: SR leukemia
[10] = system: OVCAR-3 ovarian
[11] = system: A498 renal
[12] = system: OVCAR-5 ovarian
[13] = system: NCI/ADR-RES ovarian
[14] = system: 786-0 renal
[15] = system: UACC-257 melanoma
[16] = system: MOLT-4 leukemia
[17] = system: KM12 colon
[18] = system: SNB-19 CNS
[19] = system: UO-31 renal
[20] = system: HCT-15 colon
[21] = system: TK-10 renal
[22] = system: RPMI-8226 leukemia
[23] = system: SF-539 CNS
[24] = system: OVCAR-8 ovarian
[25] = system: NCI-H23 lung
[26] = system: M14 melanoma
[27] = system: MDA-MB-435 melanoma
[28] = system: SN12C renal
[29] = system: HOP-62 NSCLC
[30] = system: SK-MEL-28 melanoma
[31] = system: ACHN renal
[32] = system: HT29 colon
[33] = system: NCI-H522 lung
[34] = system: MDA-MB-468 breast
[35] = system: SW-620 colon
[36] = system: BT-549 breast
[37] = system: NCI-H226 lung
[38] = system: RXF 393 renal
[39] = system: OVCAR-4 ovarian
[40] = system: NCI-H322M lung
[41] = system: IGROV1 ovarian
[42] = system: SK-OV-3 ovarian
[43] = system: U251 glioblastoma
[44] = system: K-562 leukemia
[45] = system: COLO 205 colon
[46] = system: SK-MEL-5 melanoma
[47] = system: PC-3 prostate
[48] = system: MALME-3M melanoma
[49] = system: SF-268 CNS
[50] = system: A549 NSCLC
[51] = system: SF-295 CNS
[52] = system: HL-60(TB) leukemia
[53] = system: CAKI-1 renal
[54] = system: HOP-92 NSCLC
[55] = system: NCI-H460 NSCLC
[56] = system: CCRF-CEM leukemia

`Cc1c(-c2c(F)cc(C(N)=O)c3[nH]c4c(c23)CC[C@H](C(C)(C)O)C4)cccc1-n1c(=O)c2cccc(F)c2n(C)c1=O` gave a GI50 [1] of 3.59 µM, a TGI [1] of 14.5 µM and a GI50 [2] of 3.14 µM. For the same compound, the TGI [2] was 12.1 µM, the GI50 [3] was 5.98 µM and the TGI [3] was 16.2 µM. It also gave a GI50 [4] of 2.18 µM, a TGI [4] of 7.9 µM and a GI50 [5] of 2.33 µM. The TGI [5] was 6.99 µM, the GI50 [6] was 3.6 µM and the TGI [6] was 15.7 µM. It also gave a GI50 [7] of 4.85 µM, a TGI [7] of 23 µM and a GI50 [8] of 1.29 µM. For the same compound, the TGI [8] was 3.56 µM, the GI50 [9] was 1.66 µM and the TGI [9] was 3.04 µM. It also gave a GI50 [10] of 2.54 µM, a TGI [10] of 6.39 µM and a GI50 [11] of 3.25 µM. The TGI [11] was 9.41 µM, the GI50 [12] was 2.56 µM and the TGI [12] was 11.3 µM. It also gave a GI50 [13] of 3.55 µM, a TGI [13] of 13 µM and a GI50 [14] of 3.27 µM. The TGI [14] was 14.5 µM, the GI50 [15] was 2.29 µM and the TGI [15] was 10.7 µM. It also gave a GI50 [16] of 1.53 µM, a TGI [16] of 2.93 µM and a GI50 [17] of 0.284 µM. It also gave a TGI [17] of 1.54 µM, a GI50 [18] of 9.94 µM and a TGI [18] of 24.5 µM. It also gave a GI50 [19] of 2 µM, a TGI [19] of 5.39 µM and a GI50 [20] of 3.7 µM. The TGI [20] was 13.6 µM, the GI50 [21] was 2.16 µM and the TGI [21] was 4.76 µM. The GI50 [22] was 1.32 µM, the TGI [22] was 2.7 µM and the GI50 [23] was 8 µM. It also gave a TGI [23] of 20.9 µM, a GI50 [24] of 4.62 µM and a TGI [24] of 22.9 µM. The GI50 [25] was 2.67 µM, the TGI [25] was 10.9 µM and the GI50 [26] was 2.2 µM. It also gave a TGI [26] of 10.1 µM, a GI50 [27] of 4.13 µM and a TGI [27] of 15.1 µM. It also gave a GI50 [28] of 3.26 µM, a TGI [28] of 13.1 µM and a GI50 [29] of 8.36 µM. It also gave a TGI [29] of 26.5 µM, a GI50 [30] of 2.87 µM and a TGI [30] of 13.8 µM. It also gave a GI50 [31] of 1.97 µM, a TGI [31] of 5.73 µM and a GI50 [32] of 1.47 µM. The TGI [32] was 11.8 µM, the GI50 [33] was 1.89 µM and the TGI [33] was 6.56 µM. The GI50 [34] was 2.86 µM, the TGI [34] was 5.86 µM and the GI50 [35] was 2.94 µM. For the same compound, the TGI [35] was 13.5 µM, the GI50 [36] was 5.1 µM and the TGI [36] was 15.7 µM. For the same compound, the GI50 [37] was 2.56 µM, the TGI [37] was 10.4 µM and the GI50 [38] was 1.96 µM. For the same compound, the TGI [38] was 4.07 µM, the GI50 [39] was 2.8 µM and the TGI [39] was 7.38 µM. It also gave a GI50 [40] of 4.08 µM, a TGI [40] of 23.6 µM and a GI50 [41] of 3.17 µM. For the same compound, the TGI [41] was 9.53 µM, the GI50 [42] was 2.26 µM and the TGI [42] was 8.77 µM. The GI50 [43] was 5.78 µM, the TGI [43] was 19.8 µM and the GI50 [44] was 4.66 µM. The TGI [44] was over 100 µM, the GI50 [45] was 1.61 µM and the TGI [45] was 4.46 µM. For the same compound, the GI50 [46] was 4.31 µM, the TGI [46] was 14.1 µM and the GI50 [47] was 3.85 µM. For the same compound, the TGI [47] was 17 µM, the GI50 [48] was 1.79 µM and the TGI [48] was 6.95 µM. It also gave a GI50 [49] of 5.58 µM, a TGI [49] of 21.4 µM and a GI50 [50] of 2.43 µM. The TGI [50] was 9.34 µM, the GI50 [51] was 3.42 µM and the TGI [51] was 12 µM. For the same compound, the GI50 [52] was 1.12 µM, the TGI [52] was 2.34 µM and the GI50 [53] was 2.21 µM. For the same compound, the TGI [53] was 5.72 µM, the GI50 [54] was 1.45 µM and the TGI [54] was 4.8 µM. The GI50 [55] was 2.9 µM, the TGI [55] was 13.1 µM and the GI50 [56] was 3.33 µM. It also gave a TGI [56] of 9.78 µM.
